Data taken from PMC11311241, “In Situ Forming, Enzyme-Responsive Peptoid-Peptide Hydrogels: An Advanced Long-Acting Injectable Drug Delivery System” (Journal of the American Chemical Society, 2024).
Read-outs that look alike come from different tables or passages of the source.

Legend:
[1] = test system: HIV; conditions: cited from earlier work
[2] = rats
Description: Female Sprague–Dawley rats (n = 18, aged 8–10 weeks, mean weight = 220 g) were purchased from Envigo and acclimatized for 1 week prior to experimentation.
This treatment was then administered intravenously to the tail vein (8.46 mg kg−1).15 The
extraction from blood plasma samples was possible. The peptoid-D-peptide experimental
injectable solution was formed by dissolving lyophilized UV-sterilized
mL) were obtained from the tail vein of each rat and collected in 1.5 mL preheparinized
group. Centrifugation (13,400 rpm, 10 min) was utilized to separate blood plasma
be analyzed via analytical RP-HPLC and a validated calibration curve (Figure S35) as outlined
The pharmacokinetic parameters were calculated using PKSolver 2.0.16, 17 The
parameters studied were the drug half-life (t1/2), the time to peak drug concentration (Tmax), the
maximum plasma concentration (Cmax), the area under the plasma concentration – time curve
from time zero to the last quantifiable concentration on day 35 (AUC0−35), the observed area
under the plasma concentration – time curve extrapolated from time zero to infinity (AUC0-
∞,obs) and the mean residence time (MRT) of the drug extrapolated from time zero to infinity.

[3] = test system: alkaline phosphatase; conditions: for Strain at complete deformation (G′ and G″ intersect): strain sweep 0.1–1000%, 2.5 rad s-1, 5% w/v gels; for Strain at which the weaker network breaks / Strain at which the stronger second network or entanglement breaks: strain sweep, 5% w/v gels; for Strain at which the weaker network breaks: first deformation; for Strain at which the stronger second network or entanglement breaks: second deformation
Text: Our drug delivery system is partly defined by drug diffusion from the hydrogel matrix, and hydrolysis of the peptoid-peptide-drug chemical linker. Reproducing supramolecular gels’ mechanical properties is difficult, especially for peptide-based systems. Experimental parameters and formulation factors are particularly important, as highlighted recently by the Adams and Draper groups.[77],[78] Subtle experimental influences e.g. handling and temperature, can lead to issues with reproducibility. […] Loss (G″) and storage (G′) moduli, critical strain (%) and oscillatory time sweeps were performed to determine the rheological changes with time and the potential for rapid in situ hydrogel depot formation upon exposure to 3.98 U mL^–1 phosphatase enzyme. […] Hydrogel formation occurs when the storage modulus (G′) is at least 1 order of magnitude greater than the loss modulus (G″).[79]
Rapid gelation is important for in situ formation of drug delivery depots to reduce the diffusion of drug(s) from the depot and potential burst release. Quick gelation after injectable administration is also important for our system in order to reduce the availability of the peptoid-peptide ester linkage with the drug to water within the subcutaneous space, providing a diffusion barrier to rapid drug cleavage by hydrolysis.[84] There are several ways in which time for gelation can be defined: a) the time at which the storage modulus (G′) and loss modulus (G″) cross indicating greater solid-like behavior; b) the time point at which G′ is greater by 1 order of magnitude than G″; and c) the time at which G′ and G″ begin to stabilize/plateau. […]
(i) peptoid-peptide sequence dissolved in PBS prior to addition of 2 U alkaline phosphatase, (ii) after 2 U alkaline phosphatase addition and formulation as outlined in Table S2.
S.4. Oscillatory rheology
Anton Paar MCR302 rheometer (Anton Paar, St Albans, UK). Gels were formulated at a 2 mL volume in 7 mL Sterilin ™ vials as previously described .8 A vane and cup geometry was used to perform both frequency and strain sweeps. Frequency sweeps were performed at 37 °C from 1 – 100 rad s-1 at a strain of 0.5%. […] sweeps were perform ed at 37°C, 2.5 rad s-1 and a strain of 0.1 – 1000%. Gel strength was measured by determining the strain at which the gels […]
Table S3. Gelation times for peptoid-L-peptide and peptoid-D-peptide hydrogels upon addition of alkaline phosphatase enzyme derived from data in Figures S25 – S27 S40 and […]
* Mean value of storage modulus (G′) and loss modulus (G″) for each peptoid-peptide derived

[4] = test system: NCTC 929 cells; experiment: MTS cell viability / metabolic activity assay; type: cell-based, murine; conditions: fully solubilized, 500 μM, 6, 24 and 72 h, vs media-only control, nine replicates
Description: (§1) Peptoid-peptide cell cytotoxicity studies were performed using the International Standard (ISO) murine fibroblast subcutaneous connective tissue NCTC 929 (ATCC CCL 1) cell line.[108],[116] Cell cytotoxicity was assessed using three separate assays, outlined fully in Section S.7 of the Supporting Information: (i) 3-(4,5-dimethylthiazol-2-yl)-5-(3-carboxymethoxyphenyl)-2-(4-sulfophenyl)-2H-tetrazolium (MTS) colorimetric assay, (ii) lactate dehydrogenase (LDH) release and (iii) a Live/Dead assay. The cytotoxicity of each peptoid-peptide was tested after 6 (LDH, MTS), 24 (Live/Dead, MTS) and 72 h (MTS) of exposure. […]
The MTS-based CellTiter 96 AQueous One Solution Cell Proliferation Assay (Promega, Southampton, UK) was used to analyze the metabolic activity of treated cells.3 UV absorption was measured at 490 nm using a Tecan Sunrise plate reader (Tecan UK Ltd, Reading, UK) and cell viability/percentage metabolic activity was calculated as outlined in Equation 2 below. […]
LDH release was quantified as a measure of cytotoxicity using a Cytotoxicity Detection KitPLUS assay (Sigma-Aldrich, Dorset, UK) as previously described.13 The cells were incubated, with each solubilized peptoid-peptide (20 – 500 μM) in combination with NCTC 929 cells for 6 hours, after which 100 μL of test reagent was added to each well, and incubated

[5] = In vitro zidovudine release from hydrogels in PBS, with KinetDS modelling; type: physicochemical
Text: This is typical of physically encapsulated drug release systems, which are prone to drug leakage and a high burst release.[8],[95] The release profile was monitored over the entire 28 day profile. […] Physically encapsulated systems are more applicable to acute drug delivery applications where rapid treatment, such as pain relief, is required at a high dose for a shorter time period. […] Drugs are released from the hydrogel systems in an unmodified form via simple hydrolysis of the drug-ester linkage under physiological conditions. In practice, diffusion through the peptoid-peptide hydrogel matrix and into the surrounding fluid would enable uptake into the systemic circulation. […] There appears to be a link between gelation times for peptoid-L-peptide and peptoid-D-peptide hydrogels, defined by rheological time sweeps (Figures 2f, S25c–f and Table S3). […] It is well established that rapid gel formation minimizes burst release of drug and this is especially relevant to our system,[96] whereby the presence of a gel should act as a diffusional barrier, reducing the ability of water to hydrolyze the covalent ester linkage between peptoid-peptide and drug.
KinetDS software was utilized to further understand the drug release kinetics of these novel peptoid-peptide hydrogel platforms. Various kinetic models, including zero-order, first-order, Korsmeyer–Peppas, Hixson–Crowell, Higuchi and Weibull models were applied to determine the mechanism of drug release. […] For injectable hydrogel-forming depots quantified by cumulative release, zero-order, first-order and Korsmeyer–Peppas models tend to be the most relevant for establishing the mechanism of drug release kinetics. The Higuchi model applies to drug release driven mainly by diffusion only and it is accepted that this model should not be used when hydrogel swelling may be a factor in release.[97]−[99] […] The Weibull model is associated more with nanoparticles and heterogeneous formulations; however its application in model injectable hydrogels is increasing.[101],[102] […] This indicates super case II transport (n > 0.85), whereby the drug is mainly released through the erosion of the polymer matrix and/or possibly hydrolysis of the ester-drug linkage where present.[99],[103]

[6] = test system: NCTC 929 cells; type: cell-based, murine; conditions: 24 h, fluorescence microscopy
Description: as §1
for a further 5 min. A stop reagent (50 μL) was then added, and the UV absorbance was measured at 490 nm using a Tecan Sunrise plate reader. […]
in absorbance: i) a high LDH release control representing 100% toxicity was generated by adding 5 μL of lysis solution to non-treated cells 15 min before the addition of the test reagent; ii) each peptoid-peptide was solubilized in media at the highest tested concentration (500 μM); iii) the LDH standard was added to the media; and iv) an equal volume of the highest solubilized peptoid-peptide concentration (500 μM) and the LDH standard were added to the media. The percentage of cell cytotoxicity was calculated using Equation 3 below and is reported once again as the mean of nine measurements (three replicates, repeated three times). […]

[7] = plasma zidovudine, IV 8.46 mg kg−1, mean ± SEM, n = 6
[8] = 5% w/v, 1–100 rad s-1, strain 0.5%, 37 °C, mean
[9] = 5% w/v hydrogel, PBS pH 7.4, 37 °C, n = 3
[10] = KinetDS fit of 28 day release profile

## Cc1cn([C@H]2C[C@H](N=[N+]=[N-])[C@@H](CO)O2)c(=O)[nH]c1=O [zidovudine]
[1]; 90% maximal inhibitory concentration
  IC90 range: 30–130 ng mL–1
[1]
  four times IC90 value (pharmacokinetic benchmark for HIV protection): 120 ng mL–1
[2]; [7]
  MRT0-∞,obs: approximately 1.58 hour
  Tmax: 0.58 ± 0.08 h
[2]; plasma zidovudine, IV 8.46 mg kg−1, mean ± SEM, n = 6, listed as Zidovudine
  MRT0-∞,obs: 1.58 ± 0.50 h
[2]; IV control
  Time to undetectable plasma levels: ≤ 6 h
[2]; IV control, mean plasma profile (Figure 5a), n = 6
  Plasma peak zidovudine concentration: 7,500 ng mL–1

## (NPhe)4GGGGK(AZT)Y(p)-OH [peptoid-L-peptide covalently attached to zidovudine via an ester linkage at the lysine position]
[3]; [8]
  Mean loss modulus (G″) from frequency sweeps: 112.18
  Mean storage modulus (G′) from frequency sweeps: 856.11
[3]; 5% w/v, frequency sweeps 1–100 rad s-1, strain 0.5%, 37 °C, from mean moduli
  Tan δ = G″/G′ from freq sweeps: 0.131
[3]; 5% w/v, time sweep after addition of 3.98 U mL-1 alkaline phosphatase, n = 3
  Gelation time: G′ and G″ cross: ≤ 1 min
[3]; 5% w/v, time sweep after addition of alkaline phosphatase
  Time for G′ and G″ to stabilize: 135 min
[4]
  Effect on cell metabolic activity (MTS) at 500 μM: cell toxicity was once again demonstrated only after 72 h

## (NPhe)4GGGGK(AZT)Y-OH
[5]; 5% w/v hydrogel, PBS pH 7.4, 37 °C, % of loaded drug, n = 3
  Cumulative zidovudine released in the first 72 h: 14.2%
[5]; [9]
  Cumulative zidovudine released at the final time point (28 days): 15.9%
  Cumulative zidovudine released within the first 30 min: 11.04%
[5]; [10]
  Weibull model shape factor β: 0.9550±0.11
  Weibull model α: 5.362±0.75
[5]; PBS pH 7.4, 37 °C, chemically conjugated vs physically encapsulated zidovudine
  Reduction of drug release in the first 72 h versus physical encapsulation: ~88%
[3]; 37 °C
  Strain at complete deformation (G′ and G″ intersect): ~44%
[3]
  Strain at which the weaker network breaks: ~4%
  Strain at which the stronger second network or entanglement breaks: ~17.5%

## (NPhe)4GGGGKY-OH
[5]; [10]
  Weibull model shape factor β: 0.9550
[3]
  Strain at which the weaker network breaks: ~5.78%
  Strain at which the stronger second network or entanglement breaks: ~36.5%

## (NPhe)4GGGGky(p)-OH [tetrabenzylamine-tetraglycine-D-lysine-O-phospho-D-tyrosine]
[3]; 5% w/v
  G′ from frequency sweeps: ~2030 Pa
[3]; 37 °C
  Strain at complete deformation (G′ and G″ intersect): ~192%
[3]
  Strain at which the weaker network breaks: ~0.527%
  Strain at which the stronger second network or entanglement breaks: ~4.81%
[6]
  Live/Dead staining result at 500 μM: demonstrated cytotoxicity

## tetrabenzylamine-tetraglycine-L-lysine-O-phospho-L-tyrosine [(NPhe)4GGGGKY(p)-OH]
[6]
  Live/Dead staining result at 500 μM: no observable cytotoxic effects on live cells
